# Experimental data published in patent USRE38333E1, “Antiviral phosphonomethoxy nucleotide analogs having increased oral bioavailability” (Gilead Sciences, Inc., priority 1996, dated 2003).
# Test: not given
# Type: in vitro ADME
# Details: 37° C., 20 μg/mL
# Method: (§1) Enzymatic stability studies involving plasma and intestinal homogenate were performed with 90% biological fluids.
# (§2) One blank (drug free) incubation was performed for each biological fluid. All biological fluid tubes (open) were pre-incubated without PMPA prodrugs in a shaker bath at 37° C. and 100 oscillation/min for 5 minutes. PMPA prodrugs was added to the test incubations (final concentration: 20 μg/mL, mixed and maintained at 37° C. and 100 oscillations/min. Samples (50 μL) were withdrawn at 0, 30, and 60 minutes and the reaction was quenched with 100 μL of 0.1% trifluoroacetic acid (TFA) in acetonitrile. Quenched samples were centrifuged for 5 minutes at 14,000 rpm in an Eppendorf Centrifuge 5402, and the supernatant was used for HPLC analysis.
# (§3) For each incubation, the observed rate constant for degradation was calculated by plotting the log of the peak area of PMPA prodrugs versus time of incubation (min). The slope was the observed rate constant (kobs). The half life was calculated according to the following equation: [formula]
# (§4) If the observed rate constant for degradation was less than 0.01 min^−1, then t½ was expressed as stable.
row,SMILES,Biological t½ (min) (Dog) Plasma
1,"CC(C)OC(=O)OCOP(=O)(CO[C@H](C)Cn1cnc2c(N)ncnc21)OCOC(=O)OC(C)C [Bis-isopropylCOM PMPA, Bis Isopropyl Oxymethyl Carbonate of PMPA]",20.5 min
2,"CCCCOC(=O)OCOP(=O)(CO[C@H](C)Cn1cnc2c(N)ncnc21)OCOC(=O)OCCCC [Bis-nBuCOM PMPA, Bis-n-butyl Oxymethyl Carbonate of PMPA]",<5 min

# Test: Enzymatic stability in human intestinal homogenate (S9)
# Type: in vitro ADME
# Details: human intestinal homogenate (values in parentheses), 37° C., 20 μg/mL
# Method: Human intestinal homogenate (S9) was obtained from Keystone Skin Bank (Exton, Pa.) at concentration of 20 mg protein/mL.
# as §1, §2, §3, §4
row,SMILES,Biological t½ (min) (Human) Intestine
1,"CC(C)OC(=O)OCOP(=O)(CO[C@H](C)Cn1cnc2c(N)ncnc21)OCOC(=O)OC(C)C [Bis-isopropylCOM PMPA, Bis Isopropyl Oxymethyl Carbonate of PMPA]",(<5) min
2,"CCCCOC(=O)OCOP(=O)(CO[C@H](C)Cn1cnc2c(N)ncnc21)OCOC(=O)OCCCC [Bis-nBuCOM PMPA, Bis-n-butyl Oxymethyl Carbonate of PMPA]",(<5) min

# Test: not given
# Type: in vitro ADME
# Details: dog intestinal homogenate, 37° C., 20 μg/mL
# Method: Dog intestinal segments (jejunum/ileum) were obtained fresh from Pharmakon USA (Waverly, Pa.) and intestinal homogenate was prepared as described for liver. The intestinal homogenates were stored as 1.0 mL aliquots at −70° C.
# as §1, §2, §3, §4
row,SMILES,Biological t½ (min) (Dog) Intestine
1,"CC(C)OC(=O)OCOP(=O)(CO[C@H](C)Cn1cnc2c(N)ncnc21)OCOC(=O)OC(C)C [Bis-isopropylCOM PMPA, Bis Isopropyl Oxymethyl Carbonate of PMPA]",52.6 min
2,"CCCCOC(=O)OCOP(=O)(CO[C@H](C)Cn1cnc2c(N)ncnc21)OCOC(=O)OCCCC [Bis-nBuCOM PMPA, Bis-n-butyl Oxymethyl Carbonate of PMPA]",<5 min

# Test: Oral bioavailability of PMPA and PMPA carbonates in beagle dogs
# Type: in vivo
# Details: 6.2-10 mg eq of PMPA/kg, PMPA in plasma
# Method: PMPA (9-[(R)-2-(phosphonomethoxy)propyl]adenine) and PMPA carbonates were examined to determine the effect of dose on the pharmacokinetics of PMPA in beagle dogs, in particular the bioavailability of PMPA following oral administration to beagle dogs.
# The intravenous formulations used as standards were isotonic aqueous solutions containing 50 mg/mL PMPA. Compound was added to 10 mL of WFI (water for injection from Abbott Laboratory) and 1N NaOH was added to adjust the pH to 7.4. The solutions were diluted to 15 mL with WFI and sterile filtered with a 0.2 μm filter. The PMPA dose was 10 mg/kg (0.2 mL/kg).
# The intravenous formulation for a 1 mg/kg dose was prepared as described above except only 75 mg of PMPA was added to WFI and the final concentration was 5 mg/mL. The dose was 1 mg/kg (0.2 mL/kg). Oral formulations of carbonates were prepared in 20-40% PEG 400/50 mM citric acid and were adjusted to pH 2.2.
# Two groups of five adult male beagle dogs were used. The mean body weight at the time of the first does was 9.6±0.4 Kg (range 9.2-10.2). The dogs were fasted 12-18 hours prior to dosing and until 6 hours post-dose. For pentagastrin pretreatment, dogs were given a single intramuscular injection of pentagastrin (Peptavlon 0.25 mg/mL, Ayerst Laboratories, Inc., Philadelphia, Pa.) at a dose of 6 μg/kg, 20 minutes prior to dosing. Water was provided ad lib.
# Each formulation was administered as a single dose to five male beagle dogs. Individual vials of each formulation were provided for each animal. The intravenous formulation was administrated via a cephalic vein. The oral suspension was administered by gavage, followed by two 10 mL water washes. At least one week washout period was allowed between administrations.
# Blood samples (4.0 mL) were collected by direct jugular access from each animal into heparinized tubes. Animals remained conscious throughout the sample collection period. Blood was processed immediately for plasma by centrifugation at 2000 rpm for 10 minutes. Plasma samples were frozen and maintained at ≦−20° C. until analyzed.
# Urine samples were collected over 0-24 and 24-48 hours time periods. Urine samples from 0-24 and 24-48 hours were divided into aliquots and mixed based on the volume collected and analyzed to determine amount of PMPA recovered from urine during 0-48 hours.
# PMPA in Plasma and Urine was determined as follows. PMEA (9-(2-phosphono-methoxyethyl)adenine; adefovir) was used as the internal standard for both analyses. The total concentration of PMPA in dog plasma or urine samples was determined by derivatizing PMPA and PMEA with chloroacetaldehyde to yield a highly fluorescent N^1,N^6-ethenoadenine derivative as described (Russell, J. et al. (1991) Determination of 9-[(2-Phosophonylmethoxy)-ethyl]Adenine in Rat Urine by High-Performance Liquid Chromatography with Fluorescence Detection. J. Chromatogr. (Netherlands) 572, 321-326).
# Sample Extraction for PMPA in plasma and urine was performed as follows. Plasma (200 μL) and internal standard ([…]) were mixed with 400 μL of acetonitrile containing 0.1% TFA to precipitate protein. Samples were then evaporated to dryness under reduced pressure at room temperature (Savant SpeedVac). Urine samples (20 μL) and internal standard (30 μL of 10 μg/mL PMEA providing a final PMEA concentration of 1.5 μg/mL) were used directly for derivatization without drying.
# The samples were derivatized for analysis as follows. Dried plasma samples or urine samples were reconstituted or mixed in 200 μL derivatization cocktail (0.34% chloroacetaldehyde in 100 mM sodium acetate, pH 4.5), vortexed, and centrifuged for 10 minutes at 14,000 rpm in an Eppendorf Centrifuge 5402. Supernatant was then transferred to a clean screw capped tube and incubated at 95° C. for 40 minutes. Derivatized samples were quenched on ice and evaporated to dryness under reduced pressure at room temperature. […]
row,SMILES,% of PMPA IV (1 mg/kg) AUC: PMPA
1,"CC(C)OC(=O)OCOP(=O)(CO[C@H](C)Cn1cnc2c(N)ncnc21)OCOC(=O)OC(C)C [Bis-isopropylCOM PMPA, Bis Isopropyl Oxymethyl Carbonate of PMPA]",35.8 ± 14.7%
2,"CCCCOC(=O)OCOP(=O)(CO[C@H](C)Cn1cnc2c(N)ncnc21)OCOC(=O)OCCCC [Bis-nBuCOM PMPA, Bis-n-butyl Oxymethyl Carbonate of PMPA]",17.3 ± 2.57%

# Same assay, conditions: intact prodrug in plasma
row,SMILES,% of PMPA IV (1 mg/kg) AUC: Prodrug
1,"CC(C)OC(=O)OCOP(=O)(CO[C@H](C)Cn1cnc2c(N)ncnc21)OCOC(=O)OC(C)C [Bis-isopropylCOM PMPA, Bis Isopropyl Oxymethyl Carbonate of PMPA]",0%

# Same assay, conditions: monoester in plasma
row,SMILES,% of PMPA IV (1 mg/kg) AUC: Monoester
1,"CC(C)OC(=O)OCOP(=O)(CO[C@H](C)Cn1cnc2c(N)ncnc21)OCOC(=O)OC(C)C [Bis-isopropylCOM PMPA, Bis Isopropyl Oxymethyl Carbonate of PMPA]",3.1%

# Same assay, conditions: other species in plasma
row,SMILES,% of PMPA IV (1 mg/kg) AUC: other
1,"CC(C)OC(=O)OCOP(=O)(CO[C@H](C)Cn1cnc2c(N)ncnc21)OCOC(=O)OC(C)C [Bis-isopropylCOM PMPA, Bis Isopropyl Oxymethyl Carbonate of PMPA]",0%

# Test: Enzymatic stability in dog liver homogenate (S9)
# Type: in vitro ADME
# Details: 37° C., 20 μg/mL
# Method: Dog liver was obtained fresh from Pharmakon USA (Waverly, Pa.). Liver homogenate was prepared following a standard protocol. Dog liver was rinsed three times with ice-code 50 mM sodium/potassium phosphate buffer and homogenized with a Tekmar Tissumizer homogenizer (VWR 33995-060). The homogenate was centrifuged at 9000 g (11,000 rpm for Eppendorf Centrifuge 5402; Brinkman Instruments, Westbury, N.Y.) at 4° C. for 20 minutes. The supernatant was designated at the S9 fraction. The concentration of protein in the S9 fraction was determined using a Bio-Rad Protein Assay Kit II, with bovine serum albumin as standard. Esterase activity was determined using o-nitrophenyl butyreate as substrate and activity was calculated based on the increase in absorbance at 420 nm after a 1 min incubation. The homogenates were stored as 1.0 mL aliquots at −70° C.
# as §2, §3, §4
row,SMILES,Biological t½ (min) (Dog) Liver
1,"CC(C)OC(=O)OCOP(=O)(CO[C@H](C)Cn1cnc2c(N)ncnc21)OCOC(=O)OC(C)C [Bis-isopropylCOM PMPA, Bis Isopropyl Oxymethyl Carbonate of PMPA]",<5 min
2,"CCCCOC(=O)OCOP(=O)(CO[C@H](C)Cn1cnc2c(N)ncnc21)OCOC(=O)OCCCC [Bis-nBuCOM PMPA, Bis-n-butyl Oxymethyl Carbonate of PMPA]",<5 min

# Test: Partition coefficient (Log PC)
# Type: physicochemical
# Details: not given
row,SMILES,Log PC pH 7.4
1,"CC(C)OC(=O)OCOP(=O)(CO[C@H](C)Cn1cnc2c(N)ncnc21)OCOC(=O)OC(C)C [Bis-isopropylCOM PMPA, Bis Isopropyl Oxymethyl Carbonate of PMPA]",1.25
2,"CCCCOC(=O)OCOP(=O)(CO[C@H](C)Cn1cnc2c(N)ncnc21)OCOC(=O)OCCCC [Bis-nBuCOM PMPA, Bis-n-butyl Oxymethyl Carbonate of PMPA]",2.7
